Assay results as given in patent US12414961B2, “Substituted nucleosides and nucleotides for treating viral infections” (priority 2013, dated 2025).

Key:
[1] = Cytotoxicity (CC50) CEM; details: human, CEM cells
[2] = Cytotoxicity (CC50) Huh-7; details: human, Huh-7 cells
[3] = Cytotoxicity (CC50) HepG2; details: human, HepG2 cells
[4] = Cytotoxicity in Huh-7 cells (Dengue assay); details: human, Huh-7 cells
[5] = tested on: Dengue Type 2; experiment: Anti-Dengue virus cytoprotection assay, Huh-7 cells; details: Huh-7, read-out: Dengue Type 2 Huh-7 Cells (EC50 uM)
[6] = tested on: Influenza A H1N1; experiment: Influenza A H1N1 antiviral assay; type: cell-based; details: Influenza A virus, H1N1, read-out: Influenza A H1N1 EC50
[7] = tested on: Influenza A H3N2; experiment: Influenza A H3N2 antiviral assay; type: cell-based; details: Influenza A virus, H3N2, read-out: Influenza A H3N2 EC50
[8] = tested on: Influenza A H5N1 (low path); experiment: microbe, parasite or virus in culture; type: cell-based; details: H5N1, read-out: Influenza A H5N1 (low path) EC50
[9] = tested on: Influenza B; experiment: Influenza B antiviral assay; type: cell-based; details: Influenza B virus
[10] = tested on: RSV; experiment: RSV antiviral assay; type: cell-based; details: human respiratory syncytial virus
[11] = tested on: SARS; experiment: microbe, parasite or virus in culture; type: cell-based; details: Severe acute respiratory syndrome coronavirus, read-out: SARS EC50
[12] = tested on: Measles; experiment: Measles antiviral assay; type: cell-based, Measles virus; details: Measles morbillivirus
[13] = tested on: CHIK Virus; experiment: CHIK Virus screening assay; type: cell-based, CHIKV; details: Chikungunya virus, read-out: CHIK Virus EC50
[14] = tested on: Dengue Virus; experiment: Dengue Virus screening assay; type: cell-based, DENV
[15] = tested on: RVFV; experiment: microbe, parasite or virus in culture; type: cell-based; details: Rift Valley fever virus, read-out: RVFV EC50
[16] = tested on: Tacaribe Virus; experiment: microbe, parasite or virus in culture; type: cell-based, TCRV; details: Mammarenavirus tacaribeense, read-out: Tacaribe Virus EC50
[17] = tested on: VEEV; experiment: microbe, parasite or virus in culture; type: cell-based; details: Venezuelan equine encephalitis virus, read-out: VEEV EC50
[18] = tested on: West Nile Virus; experiment: West Nile Virus screening assay; type: cell-based, WNV; details: read-out: West Nile Virus EC50
[19] = tested on: A204; experiment: Cytotoxicity (CC50) A204; type: cell-based; details: A204
[20] = tested on: IEC-6; experiment: Cytotoxicity (CC50) IEC-6; type: cell-based; details: IEC-6
[21] = tested on: H9c; experiment: Cytotoxicity (CC50) H9c; type: cell-based; details: H9c
[22] = tested on: CEM; experiment: Cytotoxicity (CC50) CEM; details: read-out: Cytotoxicity (CC50 uM) CEM; CEM
[23] = tested on: Huh-7; experiment: Cytotoxicity (CC50) Huh-7; details: read-out: Cytotoxicity (CC50 uM) Huh-7; Huh-7
[24] = tested on: HepG2; experiment: Cytotoxicity (CC50) HepG2; details: read-out: Cytotoxicity (CC50 uM) HepG2; HepG2
[25] = tested on: BxPC3; experiment: Cytotoxicity (CC50) BxPC3; details: read-out: Cytotoxicity (CC50 uM) BxPC3; BxPC3
[26] = tested on: GT1b replicon cells; experiment: Cytotoxicity in GT1b replicon cells; type: cell-based
[27] = Cytotoxicity in Vero cells (Dengue assay); details: African green monkey
[28] = tested on: Dengue Type 2; experiment: Anti-Dengue virus cytoprotection assay, Vero cells; details: read-out: Dengue Type 2 Vero Cells (EC50 uM)

For `CC(C)OC(=O)[C@H](C)NP(=O)(OC[C@@]1(N=[N+]=[N-])O[C@@H](n2ccc(=S)[nH]c2=O)C(O)[C@H]1O)Oc1ccccc1` (stereo partly drawn), the CC50 [1] was 229 µM, the CC50 [2] was > 400 µM and the CC50 [3] was > 400 µM. The CC50 [4] was > 100 µM and the EC50 [5] was 4.82 µM.
With `CNc1ccn([C@@H]2O[C@H](CO)[C@H](O)C2F)c(=O)n1` (stereo partly drawn) [EFVX-01853] the EC50 [6] was > 100 µM, the EC50 [7] was > 100 µM and the EC50 [8] was > 100 µM. The EC50 [9] was > 100 µM, the EC50 [10] was > 100 µM and the EC50 [11] was > 100 µM. For the same compound, the EC50 [12] was > 100 µM, the EC50 [13] was > 100 µg/mL and the EC50 [14] was > 100 µg/mL. The EC50 [15] was > 100 µg/mL, the EC50 [16] was > 100 µg/mL and the EC50 [17] was > 100 µg/mL. The EC50 [18] was > 100 µg/mL.
With `CN(C)c1ccn([C@@H]2O[C@H](CO)[C@H](O)C2F)c(=O)n1` (stereo partly drawn) [EFVX-01854] the EC50 [6] was > 100 µM, the EC50 [7] was > 100 µM and the EC50 [8] was > 100 µM. The EC50 [9] was > 100 µM, the EC50 [10] was > 100 µM and the EC50 [11] was > 100 µM. The EC50 [12] was > 100 µM, the EC50 [13] was > 100 µg/mL and the EC50 [14] was > 100 µg/mL. For the same compound, the EC50 [15] was > 100 µg/mL, the EC50 [16] was > 100 µg/mL and the EC50 [17] was > 100 µg/mL. The EC50 [18] was > 100 µg/mL.
With `Cc1cn([C@@H]2O[C@H](CO)[C@H](O)C2F)c(=O)nc1N` (stereo partly drawn) [EFVX-01855] the EC50 [6] was > 100 µM, the EC50 [7] was > 100 µM and the EC50 [8] was > 100 µM. For the same compound, the EC50 [9] was > 100 µM, the EC50 [10] was > 100 µM and the EC50 [11] was > 100 µM. For the same compound, the EC50 [12] was > 100 µM, the EC50 [13] was > 100 µg/mL and the EC50 [14] was > 100 µg/mL. For the same compound, the EC50 [15] was > 100 µg/mL, the EC50 [16] was > 100 µg/mL and the EC50 [17] was > 100 µg/mL. The EC50 [18] was > 100 µg/mL.
In the case of `Nc1nc(=O)n([C@@H]2O[C@H](CO)[C@H](O)C2F)cc1CO` (stereo partly drawn) [EFVX-01856], the EC50 [6] is reported as > 100 µM, the EC50 [7] is reported as > 100 µM and the EC50 [8] is reported as > 100 µM. The EC50 [9] was > 100 µM, the EC50 [10] was > 100 µM and the EC50 [11] was > 100 µM. The EC50 [12] was > 100 µM, the EC50 [13] was > 100 µg/mL and the EC50 [14] was > 100 µg/mL. The EC50 [15] was > 100 µg/mL, the EC50 [16] was > 100 µg/mL and the EC50 [17] was > 100 µg/mL. The EC50 [18] was > 100 µg/mL.
For `Nc1ccn([C@@H]2O[C@H](CO)[C@H](O)C2F)c(=S)n1` (stereo partly drawn) [EFVX-01857], the EC50 [6] was > 100 µM, the EC50 [7] was > 100 µM and the EC50 [8] was > 100 µM. The EC50 [9] was > 100 µM, the EC50 [10] was > 100 µM and the EC50 [11] was > 87 µM. The EC50 [12] was > 100 µM, the EC50 [13] was > 100 µg/mL and the EC50 [14] was > 100 µg/mL. For the same compound, the EC50 [15] was > 100 µg/mL, the EC50 [16] was > 100 µg/mL and the EC50 [17] was > 100 µg/mL. For the same compound, the EC50 [18] was > 100 µg/mL.
For `CC(C)OC(=O)[C@H](C)NP(=O)(OC[C@H]1O[C@@H](n2ccc(=O)[nH]c2=S)[C@](C)(O)C1O)Oc1ccccc1` (stereo partly drawn) [drawing 366], the CC50 [19] was 98 µM, the CC50 [20] was > 200 µM and the CC50 [21] was > 200 µM. For the same compound, the CC50 [22] was > 300 µM, the CC50 [23] was > 400 µM and the CC50 [24] was > 400 µM. For the same compound, the CC50 [25] was > 300 µM.
For `CC(C)OC(=O)[C@H](C)NP(=O)(OC[C@H]1O[C@@H](n2ccc(=O)[nH]c2=S)[C@](C)(O)C1O)Oc1ccccc1` (stereo partly drawn) [drawing 369], the CC50 [19] was 98 µM, the CC50 [20] was > 200 µM and the CC50 [25] was > 300 µM.
With `CC(C)OC(=O)[C@H](C)N[P@](=O)(OC[C@H]1O[C@@H](n2ccc(=O)[nH]c2=S)[C@](C)(O)C1O)Oc1ccccc1` (stereo partly drawn) [drawing 371] the CC50 [22] was > 400 µM, the CC50 [23] was 252 µM and the CC50 [24] was > 400 µM.
For `CC(C)OC(=O)[C@H](C)N[P@](=O)(OC[C@H]1O[C@@H](n2ccc(=O)[nH]c2=O)[C@](C)(F)C1O)Oc1ccccc1` (stereo partly drawn) [drawing 373], the CC50 [22] was > 400 µM, the CC50 [23] was 279 µM and the CC50 [24] was 365 µM.
For `CC(C)OC(=O)[C@H](C)NP(=O)(OC[C@H]1O[C@@H](n2ccc(=O)[nH]c2=S)[C@](C)(O)C1O)Oc1ccccc1` (stereo partly drawn) [drawing 383], the CC50 [26] was > 10 µM.
With `CC(C)OC(=O)[C@H](C)N[P@](=O)(OC[C@H]1O[C@@H](n2ccc(=O)[nH]c2=S)[C@](C)(O)C1O)Oc1ccccc1` (stereo partly drawn) [drawing 384] the CC50 [26] was > 10 µM.
For `CC(C)OC(=O)[C@H](C)N[P@](=O)(OC[C@H]1O[C@@H](n2ccc(=O)[nH]c2=O)[C@](C)(F)C1O)Oc1ccccc1` (stereo partly drawn) [drawing 385], the CC50 [26] was > 2 µM.
For `CC(C)OC(=O)[C@H](C)N[P@](=O)(OC[C@H]1O[C@@H](n2ccc(=O)[nH]c2=S)C(C)(O)[C@H]1O)Oc1ccccc1` (stereo partly drawn) [drawing 388], the CC50 [1] was > 400 µM, the CC50 [2] was 252 µM and the CC50 [3] was > 400 µM. For the same compound, the CC50 [27] was > 100 µM, the CC50 [4] was > 100 µM and the EC50 [28] was 2.35 µM. The EC50 [5] was 5.62 µM.
